Key:
[1] = biological target: T1, 5-hydroxytryptamine receptor 1A (Homo sapiens, UniProt P08908); experiment: Binding affinity against cloned human 5-hydroxytryptamine 1A receptor
T1 sequence (P08908 whole entry): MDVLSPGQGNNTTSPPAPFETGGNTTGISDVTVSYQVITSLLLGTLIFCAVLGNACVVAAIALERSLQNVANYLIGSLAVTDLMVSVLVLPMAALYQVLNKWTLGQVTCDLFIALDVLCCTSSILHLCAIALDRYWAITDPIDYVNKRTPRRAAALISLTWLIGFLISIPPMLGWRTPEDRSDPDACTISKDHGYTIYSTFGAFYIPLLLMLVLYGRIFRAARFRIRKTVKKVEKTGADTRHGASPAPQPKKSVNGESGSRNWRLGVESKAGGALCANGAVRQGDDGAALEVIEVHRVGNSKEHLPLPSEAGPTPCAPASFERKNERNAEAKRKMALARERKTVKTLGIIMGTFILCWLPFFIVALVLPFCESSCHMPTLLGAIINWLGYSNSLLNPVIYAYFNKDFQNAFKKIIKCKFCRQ

[2] = biological target: T2, 5-hydroxytryptamine receptor 1B (Homo sapiens, UniProt P28222); experiment: Binding affinity against cloned human 5-hydroxytryptamine 1B receptor
T2 sequence (P28222 whole entry): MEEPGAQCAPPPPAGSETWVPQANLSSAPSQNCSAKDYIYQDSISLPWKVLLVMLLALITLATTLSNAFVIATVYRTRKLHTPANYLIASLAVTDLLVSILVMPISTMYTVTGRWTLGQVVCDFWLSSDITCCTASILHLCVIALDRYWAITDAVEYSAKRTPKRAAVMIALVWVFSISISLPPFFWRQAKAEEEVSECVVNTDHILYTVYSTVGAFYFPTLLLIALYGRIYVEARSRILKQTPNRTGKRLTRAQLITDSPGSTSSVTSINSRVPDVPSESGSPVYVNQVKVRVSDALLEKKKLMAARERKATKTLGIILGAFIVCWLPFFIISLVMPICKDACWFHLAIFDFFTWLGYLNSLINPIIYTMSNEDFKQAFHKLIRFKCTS

[3] = biological target: T3, 5-hydroxytryptamine receptor 1D (Homo sapiens, UniProt P28221); experiment: Binding affinity against cloned human 5-hydroxytryptamine 1D receptor
T3 sequence (P28221 whole entry): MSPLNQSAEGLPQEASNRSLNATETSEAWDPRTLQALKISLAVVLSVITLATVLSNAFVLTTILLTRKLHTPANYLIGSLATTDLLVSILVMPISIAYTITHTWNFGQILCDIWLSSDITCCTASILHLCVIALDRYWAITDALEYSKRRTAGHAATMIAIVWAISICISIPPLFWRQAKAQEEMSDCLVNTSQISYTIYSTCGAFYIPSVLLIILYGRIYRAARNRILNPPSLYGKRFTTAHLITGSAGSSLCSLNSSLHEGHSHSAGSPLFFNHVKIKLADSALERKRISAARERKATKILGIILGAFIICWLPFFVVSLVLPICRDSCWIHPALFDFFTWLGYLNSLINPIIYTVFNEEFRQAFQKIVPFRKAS

Homo sapiens = species on record: Homo sapiens; experiment: Selectivity towards human 5-hydroxytryptamine 1B receptor to that of 5-hydroxytryptamine 1A receptor
[4] = biological target: Serotonin 1 receptors; 5-HT1B & 5-HT1D (Homo sapiens) (UniProt P28222+P28221); experiment: Selectivity towards human 5-hydroxytryptamine 1B receptor to that of 5-hydroxytryptamine 1D receptor; format: protein assay
[5] = biological target: T2, 5-hydroxytryptamine receptor 1B; experiment: Intrinsic activity for human 5-hydroxytryptamine 1B receptor
[6] = biological target: T3, 5-hydroxytryptamine receptor 1D; experiment: Intrinsic activity for human 5-hydroxytryptamine 1D receptor
Rattus norvegicus = species on record: Rattus norvegicus; experiment: Intrinsic clearance from rat liver microsomes; format: ADME, Microsome
[7] = Intrinsic clearance from human liver microsomes; format: ADME, Microsome

Compound `CN1CCN(c2cc3c(cc2Cl)CCN3C(=O)Nc2ccc(-c3ccncc3)c3ccccc23)CC1` has a Ki [1] of 3.98 nM, a Ki [2] of 3.98 nM and a Ki [3] of 1 nM. The Selectivity (Homo sapiens) was 1 and the Selectivity [4] was 0.25.
`CCCN1[C@H](C)CN(c2cc3c(cc2OC)CCN3C(=O)c2ccc(-c3cccc(C)n3)c3ccccc23)C[C@@H]1C` gave a Ki [1] of 79.4 nM, a Ki [2] of 31.6 nM and a Ki [3] of 158 nM. For the same compound, the Selectivity (Homo sapiens) was 2 and the Selectivity [4] was 4.7.
`COc1cc2c(cc1N1C[C@@H](C)N(C)[C@@H](C)C1)N(C(=O)Cc1cccc(C(F)(F)F)c1F)CC2` gave an Intrinsic activity [5] of 0.1, a Ki [2] of 1.58 nM and a Ki [3] of 126 nM.
For `COc1cc2c(cc1N1C[C@@H](C)N(C)[C@@H](C)C1)N(C(=O)c1cccc(Cl)c1Cl)CC2`, the Ki [2] was 12.6 nM and the Ki [3] was 251 nM.
Compound `COc1cc2c(cc1N1C[C@@H](C)N(C)[C@@H](C)C1)N(C(=O)c1ccc(-c3ccc(-c4noc(C)n4)cc3C)cc1)CC2` has a Ki [2] of 5.01 nM and a Ki [3] of 15.8 nM.
Compound `COc1cc2c(cc1N1C[C@@H](C)N(C)[C@@H](C)C1)N(C(=O)c1cccc(Cl)c1)CC2` has a Ki [2] of 20 nM and a Ki [3] of 251 nM.
Compound `COc1cc2c(cc1N1C[C@@H](C)N(C)[C@@H](C)C1)N(C(=O)Nc1cccc(Cl)c1Cl)CC2` has an Intrinsic activity [5] of 0.1, an Intrinsic activity [6] of 0.1 and an Intrinsic clearance (Rattus norvegicus) of 3 mL/min/g. It also gave an Intrinsic clearance [7] of 3 mL/min/g, a Ki [2] of 7.94 nM and a Ki [3] of 79.4 nM. For the same compound, the Selectivity (Homo sapiens) was 200 and the Selectivity [4] was 10.
`COc1cc2c(cc1N1C[C@@H](C)N[C@@H](C)C1)N(C(=O)c1ccc(-c3cccc(C)n3)c3ccccc13)CC2` gave an Intrinsic clearance (Rattus norvegicus) of 12 mL/min/g, an Intrinsic clearance [7] of 14 mL/min/g and a Ki [1] of 1000 nM. For the same compound, the Ki [2] was 50.1 nM, the Ki [3] was 126 nM and the Selectivity (Homo sapiens) was 21. It also gave a Selectivity [4] of 2.8.
`COc1cc2c(cc1N1CCN(C)CC1)N(C(=O)c1ccc(-c3cccc(C)n3)c3ccccc13)CC2` gave an Intrinsic activity [5] of 0.9, an Intrinsic activity [6] of 0.9 and a Ki [1] of 12.6 nM. It also gave a Ki [2] of 2 nM, a Ki [3] of 25.1 nM and a Selectivity (Homo sapiens) of 6. For the same compound, the Selectivity [4] was 12.
For `COc1cc2c(cc1N1C[C@@H](C)N(C)[C@@H](C)C1)N(C(=O)Cc1cccc(Cl)c1F)CC2`, the Intrinsic activity [5] was 0.1, the Ki [2] was 2 nM and the Ki [3] was 100 nM.
`COc1cc2c(cc1N1C[C@@H](C)N(C)[C@@H](C)C1)N(C(=O)Oc1cccc(C(F)(F)F)c1Cl)CC2` showed an Intrinsic activity [5] of 0.15, a Ki [2] of 2.51 nM and a Ki [3] of 25.1 nM.
For `COc1cc2c(cc1N1C[C@@H](C)N(C)[C@@H](C)C1)N(C(=O)Nc1cccc(C(F)(F)F)c1Cl)CC2`, the Intrinsic activity [5] was 0, the Ki [2] was 2.51 nM and the Ki [3] was 50.1 nM.
`COc1cc2c(cc1N1C[C@@H](C)N(C)[C@@H](C)C1)N(C(=O)Nc1cccc(Cl)c1F)CC2` gave an Intrinsic activity [5] of 0.1, a Ki [2] of 7.94 nM and a Ki [3] of 200 nM.
`COc1cc2c(cc1N1C[C@@H](C)N[C@@H](C)C1)N(C(=O)c1ccc(-c3ccc(-c4ncccn4)cc3C)cc1)CC2` gave a Ki [2] of 5.01 nM and a Ki [3] of 251 nM.
`COc1cc2c(cc1N1C[C@@H](C)N(C)[C@@H](C)C1)N(C(=O)c1ccc(-c3cccc(C)n3)c3ccccc13)CC2` gave an Intrinsic activity [5] of 0.3, an Intrinsic clearance (Rattus norvegicus) of 46 mL/min/g and an Intrinsic clearance [7] of 34 mL/min/g. The Ki [1] was 501 nM, the Ki [2] was 3.16 nM and the Ki [3] was 100 nM. For the same compound, the Selectivity (Homo sapiens) was 160 and the Selectivity [4] was 30.
Compound `COc1cc2c(cc1N1C[C@@H](C)N[C@@H](C)C1)N(C(=O)c1ccc(-c3ccc(-c4noc(C)n4)cc3C)cc1)CC2` has an Intrinsic activity [5] of 0, a Ki [2] of 3.16 nM and a Ki [3] of 251 nM.
`COc1cc2c(cc1N1C[C@@H](C)N(C)[C@@H](C)C1)N(C(=O)c1ccc(-c3ccccc3C)cc1)CC2` gave an Intrinsic activity [5] of 0, a Ki [2] of 0.631 nM and a Ki [3] of 15.8 nM.
With `COc1cc2c(cc1N1C[C@@H](C)N[C@@H](C)C1)N(C(=O)c1ccc(-c3ccc(C(C)=O)cc3C)cc1)CC2` the Ki [2] was 3.16 nM and the Ki [3] was 398 nM.
For `COc1cc2c(cc1N1C[C@@H](C)N[C@@H](C)C1)N(C(=O)c1ccc(-c3cc(C)ncc3C)cc1)CC2`, the Intrinsic activity [5] was 0, the Ki [2] was 7.94 nM and the Ki [3] was 501 nM.
In the case of `COc1cc2c(cc1N1CCN(C)CC1)N(C(=O)Cc1cccc([N+](=O)[O-])c1)CC2`, the Ki [1] is reported as 158 nM, the Ki [2] is reported as 7.94 nM and the Ki [3] is reported as 31.6 nM. It also gave a Selectivity (Homo sapiens) of 20 and a Selectivity [4] of 4.
`CCN1[C@H](C)CN(c2cc3c(cc2OC)CCN3C(=O)c2ccc(-c3cccc(C)n3)c3ccccc23)C[C@@H]1C` gave an Intrinsic clearance (Rattus norvegicus) of 45 mL/min/g, an Intrinsic clearance [7] of 47 mL/min/g and a Ki [1] of 501 nM. The Ki [2] was 3.98 nM, the Ki [3] was 126 nM and the Selectivity (Homo sapiens) was 110. It also gave a Selectivity [4] of 28.
`COc1cc2c(cc1N1C[C@@H](C)N(C)[C@@H](C)C1)N(C(=O)Cc1cccc(F)c1C(F)(F)F)CC2` showed an Intrinsic activity [5] of 0.1, a Ki [2] of 3.16 nM and a Ki [3] of 200 nM.
In the case of `COc1cc2c(cc1N1CCN(C)CC1)N(C(=O)Nc1cccc(Cl)c1Cl)CC2`, the Intrinsic activity [5] is reported as 0.6, the Intrinsic activity [6] is reported as 0.7 and the Ki [1] is reported as 50.1 nM. The Ki [2] was 3.98 nM, the Ki [3] was 12.6 nM and the Selectivity (Homo sapiens) was 13. For the same compound, the Selectivity [4] was 3.
In the case of `COc1cc2c(cc1N1C[C@@H](C)N(C)[C@@H](C)C1)N(C(=O)Nc1cccc(C(F)(F)F)c1F)CC2`, the Intrinsic activity [5] is reported as 0, the Ki [2] is reported as 3.98 nM and the Ki [3] is reported as 158 nM.
Compound `COc1cc2c(cc1N1C[C@@H](C)N(C)[C@@H](C)C1)N(C(=O)Oc1cccc(C(F)(F)F)c1F)CC2` has an Intrinsic activity [5] of 0.1, a Ki [2] of 2.51 nM and a Ki [3] of 31.6 nM.
`COc1cc2c(cc1N1C[C@@H](C)N(C)[C@@H](C)C1)N(C(=O)Cc1cccc([N+](=O)[O-])c1)CC2` gave an Intrinsic activity [5] of 0.1, an Intrinsic activity [6] of 0.2 and a Ki [1] of 2000 nM. For the same compound, the Ki [2] was 15.8 nM, the Ki [3] was 251 nM and the Selectivity (Homo sapiens) was 125. It also gave a Selectivity [4] of 15.
For `COc1cc2c(cc1N1C[C@@H](C)N[C@@H](C)C1)N(C(=O)c1ccc(-c3ccc(N4CCCC4=O)nc3C)cc1)CC2`, the Intrinsic activity [5] was 0, the Ki [2] was 5.01 nM and the Ki [3] was 398 nM.
